Results from US9320682B2, “Tooth filling materials and dental varnish for inhibiting the formation of a biofilm of Streptococcus mutans and the production thereof” (VOCO Gmbh, priority 2012, dated 2016).

What was measured:
Type in all cases: cell-based
[1] = tested on: Streptococcus mutans UA159; experiment: Colony-forming units in the biofilm on tooth filling material test members (Example 9); conditions: triclosan and chlorohexidine at a hundred times the concentration of carolacton
Protocol: (§1) Stock solutions and corresponding diluted solutions of chlorohexidine, triclosan and carolacton were produced in methanol. […] of those solutions to be tested were introduced by pipette into microtitration plates; 9 parallel wells were used per substance and concentration. The methanol was evaporated (under a hood) and then 200 μl of the dilute bacterial suspension were added. The final concentrations of the active substances in the 200 μl of bacterial suspension were 0.25 μg/ml and 2.5 μg/ml. The plates were incubated anaerobically at 37° C. without agitation for 20 hours. Subsequently, the excess was removed by pipette, the biofilm was washed with a physiological cooking salt solution (0.85% of NaCl) and the biofilm was scraped off with a pipette. The biofilms from three parallel wells were suspended in 500 μl of PBS. From that biofilm suspension, a serial dilution in PBS was prepared. After each dilution step, vortexing was carried out for 1 minute. From each dilution, 50 μl was distributed three times on agar plates (TH medium). The plates were incubated for three days in the CO2 cupboard at 37° C., then the colony-forming units (CFU) were counted and the bacteria density in relation to […] of biofilm suspension was calculated.
(§2) In addition, three tooth filling materials similar to example 2 were prepared, where carolacton was replaced with triclosan in a first comparison admixture, carolacton was replaced with chlorohexidine in a second comparison admixture and carolacton was omitted in a third comparison admixture (control).
(§3) From each of the tooth filling materials produced, by hardening the tooth filling material 10 dental test members were produced with a diameter of 7 mm and a height of 1 mm and adhesively bonded with a small quantity of the tooth filling material in a total of 40 wells of a 96-well microtitration plate of polystyrene (Greiner Bio-One, μ Clear Plate Black, Frickenhausen, Germany).
In a THB nutrition medium, an over-night culture of Streptococcus mutans UA159 was produced under anaerobic conditions. […]

[2] = tested on: Streptococcus mutans UA159; experiment: Biofilm inhibition on hardened tooth filling material test members, LIVE/DEAD BacLight fluorescence (Example 9); conditions: for biofilm inhibition (in words): active substance in hardened tooth filling material, carolacton 25 μg/ml, triclosan and chlorohexidine 2500 μg/ml
Protocol: The admixture from example 2 was used as the tooth filling material according to the invention.
as §2, §3
In a THB nutrition medium, an over-night culture of Streptococcus mutans UA159 was produced under anaerobic conditions. The over-night culture obtained was diluted to an optimum density (at 620 nm; OD620) of from 0.01 to 0.03 with THB (with addition of 0.5% (G/V) of saccharose). Subsequently, 200 μl of the dilute over-night culture was introduced by pipette into the wells of the 96-well microtitration plate provided with the dental test members. The microtitration plate was subsequently incubated for 20 hours at 37° C. under anaerobic conditions in an incubator.
The determination of the biofilm inhibition was carried out with a LIVE/DEAD BacLight kit L13152 (Invitrogen, Molecular Probes, Inc. Eugene, Oreg., USA), taking note of the manufacturer's instructions. The kit comprises two dye solutions, propidium iodide and SYT09 which each discolour nucleic acids. The excesses of the biofilms in the individual wells of the 96-well microtitration plate were removed. In order to remove plankton-like or loosely bonded bacteria, the biofilm was carefully washed with 200 μl of a 0.85% NaCl solution, mixed with 200 μl of a 1:1 admixture of propidium iodide and SYT09 and subsequently left to stand for 15 minutes and at ambient temperature with light being excluded. The measurement of the fluorescence was carried out on a Wallac Victor3™ 1420Multilabel Counter (Perkin-Elmer Life Sciences) provided with detectors and filters for measuring the fluorescence at 630 nm (red) and 535 nm (green). The biofilm inhibition is given in percent as a quotient between the quotient of green and red fluorescence of the sample with the active substance (carolacton, chlorohexidine or triclosan) and the quotient of green and red fluorescence of the sample without any active substance (control).

[3] = tested on: Streptococcus mutans UA159; experiment: Colony-forming units of Streptococcus mutans biofilm after treatment with solutions of active substances (Example 8); conditions: for reduction in the colony-forming units: active substance in solution, final concentrations 0.25 μg/ml and 2.5 μg/ml, 20 hours anaerobic at 37° C.; for antimicrobial action in relation to Streptococcus mutans: solutions of the active substances at specific low concentrations (Example 8)
Protocol: In a THB nutrition medium, an over-night culture of Streptococcus mutans UA159 was cultivated anaerobically. That over-night culture was diluted to an optimum density (at 620 nm; OD620) of from 0.01 to 0.03 with THB (with addition of 0.5% (GN) of saccharose) so that a dilute bacterial suspension was obtained.
as §1

Row | Structure (SMILES) | effect on number of CFU in the biofilm (in words) [1] | inhibition at 25 µg/mL ([2]; Streptococcus mutans, UA159, active substance 25 μg/ml in hardened tooth filling material of example 2, 20 hours, green/red fluorescence quotient vs control) [%] | biofilm inhibition (in words) [2] | reduction in the colony-forming units [3] | antimicrobial action in relation to Streptococcus mutans [3] | Biofilm inhibition [%] ([2]; active substance 2500 μg/ml in hardened tooth filling material similar to example 2, 20 hours, green/red fluorescence quotient vs control) | inhibition at 2500 µg/mL ([2]; Streptococcus mutans, UA159, 20 h, read-out: Biofilm inhibition [%]) [%]
1 | COC(CC(=O)O)C(C)C(=O)C(C)/C=C(\C)C1OC(=O)C(O)C(O)/C=C/C(C)CCCC1C (stereo not drawn) [carolacton] | powerful inhibiting effect | 51 | very good biofilm inhibition | merely weakly reduces the number of colony-forming units | only has a weak antimicrobial action | – | –
2 | N=C(NCCCCCCNC(=N)NC(=N)Nc1ccc(Cl)cc1)NC(=N)Nc1ccc(Cl)cc1 [chlorohexidine] | neither triclosan nor chlorohexidine, although used at a hundred times the concentration of carolacton, results in a powerful reduction of the number of CFU | – | scarcely influence the biofilm formation | very powerful reduction in the colony-forming units | very powerful antimicrobial activity | 1 | –
3 | Oc1cc(Cl)ccc1Oc1ccc(Cl)cc1Cl [triclosan] | neither triclosan nor chlorohexidine, although used at a hundred times the concentration of carolacton, results in a powerful reduction of the number of CFU | – | scarcely influence the biofilm formation | very powerful reduction in the colony-forming units | very powerful antimicrobial activity | – | 1
